Source: the supplement of paper PMC10307832

Legend:
Assay in all cases: relative viability (nuclei count vs DMSO), 5 days (fraction); higher = more cells survive
Decitabine + Navitoclax = compound: Nc1ncn([C@H]2C[C@H](O)[C@@H](CO)O2)c(=O)n1 [Decitabine] + CC1(C)CCC(c2ccc(Cl)cc2)=C(CN2CCN(c3ccc(C(=O)NS(=O)(=O)c4ccc(N[C@H](CCN5CCOCC5)CSc5ccccc5)c(S(=O)(=O)C(F)(F)F)c4)cc3)CC2)C1 [Navitoclax] (partner 0.5 µM)
Procedure, shortened: (§1)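 Medians of duplicate plates are given as relative viability. That measure is the nuclei count in treated wells divided by the count in vehicle wells. Counts were taken on 4× images of lung cancer cell lines in 1536-well plates, 5 days after pin-tool dosing the day after seeding with one drug alone or a fixed anchor-drug dose plus five library-drug doses (not always all listed) in √10 steps.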

Decitabine + Alpelisib = compound: Nc1ncn([C@H]2C[C@H](O)[C@@H](CO)O2)c(=O)n1 [Decitabine] + Cc1nc(NC(=O)N2CCC[C@H]2C(N)=O)sc1-c1ccnc(C(C)(C)C(F)(F)F)c1 [Alpelisib] (partner 2 µM)
Procedure, shortened: as §1

Halofuginone + Foretinib = compound: O=C(C[C@H]1NCCC[C@@H]1O)Cn1cnc2cc(Br)c(Cl)cc2c1=O (racemic) [Halofuginone] + COc1cc2c(Oc3ccc(NC(=O)C4(C(=O)Nc5ccc(F)cc5)CC4)cc3F)ccnc2cc1OCCCN1CCOCC1 [Foretinib] (partner 0.25 µM)
Procedure, shortened: as §1

[1] = compound: O=C(C[C@H]1NCCC[C@@H]1O)Cn1cnc2cc(Br)c(Cl)cc2c1=O (racemic) [Halofuginone] + O=C(CCCCCCC(=O)Nc1ccccc1)NO [Vorinostat] (partner 1 µM)
Procedure, shortened: as §1

Cell Line | relative viability (Decitabine + Navitoclax; first compound 0.04 µM) | relative viability (Decitabine + Navitoclax; first compound 0.1265 µM) | relative viability (Decitabine + Navitoclax; first compound 0.4 µM) | relative viability (Decitabine + Navitoclax; first compound 1.265 µM) | relative viability (Decitabine + Navitoclax; first compound 4 µM) | relative viability (Decitabine + Alpelisib; first compound 0.04 µM) | relative viability (Decitabine + Alpelisib; first compound 0.1265 µM) | relative viability (Decitabine + Alpelisib; first compound 0.4 µM) | relative viability (Decitabine + Alpelisib; first compound 1.265 µM) | relative viability (Decitabine + Alpelisib; first compound 4 µM) | relative viability (Halofuginone + Foretinib; first compound 0.001 µM) | relative viability (Halofuginone + Foretinib; first compound 0.003162 µM) | relative viability (Halofuginone + Foretinib; first compound 0.01 µM) | relative viability (Halofuginone + Foretinib; first compound 0.03162 µM) | relative viability (Halofuginone + Foretinib; first compound 0.1 µM) | relative viability ([1]; first compound 0.001 µM) | relative viability ([1]; first compound 0.003162 µM) | relative viability ([1]; first compound 0.01 µM) | relative viability ([1]; first compound 0.03162 µM) | relative viability ([1]; first compound 0.1 µM)
NCI-H727 | 0.302 | 0.361 | 0.343 | 0.272 | 0.292 | 0.453 | 0.405 | 0.333 | 0.35 | 0.401 | 1.11 | 0.884 | 0.732 | 0.738 | 0.527 | 1.23 | 1.05 | 1.06 | 1.35 | 1.21
NCI-H838 | 0.734 | 0.512 | 0.321 | 0.366 | 0.309 | 0.715 | 0.461 | 0.409 | 0.396 | 0.276 | 1.18 | 1.02 | 1 | 0.681 | 0.395 | 0.752 | 0.746 | 0.703 | 0.507 | 0.16
H3255 | 0.201 | 0.331 | 0.353 | 0.328 | 0.276 | 0.222 | 0.579 | 0.358 | 0.428 | 0.436 | 0.748 | 0.849 | 0.825 | 1.01 | 0.856 | 0.852 | 0.818 | 0.761 | 0.819 | 0.818
EPLC-272H | 0.734 | 0.658 | – | 0.426 | 0.413 | 0.723 | 0.688 | – | 0.606 | 0.525 | 0.792 | 0.742 | 0.736 | 0.78 | 0.72 | 0.479 | 0.401 | 0.304 | 0.411 | 0.382
NCI-H647 | 0.796 | 0.836 | 0.355 | 0.219 | 0.178 | 0.971 | 0.858 | 0.632 | 0.201 | 0.254 | 1.18 | 1.23 | 1.16 | 0.979 | 0.528 | 0.833 | 0.499 | 0.489 | 0.453 | 0.103
LXF-289 | 0.65 | 0.53 | 0.44 | 0.308 | 0.29 | 0.716 | 0.606 | 0.478 | 0.352 | 0.315 | 1.01 | 1.04 | 0.927 | 1.01 | 0.922 | 0.709 | 0.829 | 0.728 | 0.763 | 0.686
NCI-H1755 | 0.912 | 0.887 | 0.696 | 0.521 | 0.302 | 0.847 | 0.858 | 0.825 | 0.511 | 0.348 | 0.943 | 0.955 | 0.861 | 0.895 | 0.877 | 0.758 | 0.838 | 0.722 | 0.768 | 0.669
HCC-15 | 0.654 | 0.646 | 0.469 | 0.413 | 0.348 | 0.799 | 0.773 | 0.441 | 0.438 | 0.302 | 1.02 | 1.1 | 1.05 | 0.967 | 0.787 | 0.848 | 0.866 | 0.902 | 0.876 | 0.85
EMC-BAC-2 | 1.08 | 1.12 | 0.773 | 0.705 | 0.605 | 0.718 | 0.699 | 0.481 | 0.442 | 0.41 | 1.06 | 0.972 | 0.986 | 0.78 | 0.423 | 0.592 | 0.491 | 0.447 | 0.334 | 0.14
NCI-H1734 | 0.583 | 0.57 | 0.424 | 0.268 | 0.246 | 0.5 | 0.615 | 0.535 | 0.399 | 0.324 | 0.961 | 0.809 | 0.831 | 0.751 | 0.485 | 0.891 | 0.9 | 0.838 | 0.753 | 0.607
NCI-H1395 | 0.913 | 0.733 | 0.715 | 0.598 | 0.703 | 0.821 | 0.776 | 0.786 | 0.518 | 0.631 | 1.02 | 0.934 | 0.925 | 1.06 | 0.879 | 0.741 | 0.682 | 0.656 | 0.603 | 0.49
HOP-62 | 0.572 | 0.388 | 0.15 | 0.172 | 0.14 | 0.652 | 0.323 | 0.152 | 0.124 | 0.125 | 1.09 | 1.22 | 1.02 | 0.96 | 0.704 | 0.675 | 0.597 | 0.603 | 0.566 | 0.279
LK-2 | 0.739 | 0.881 | 0.664 | 0.358 | 0.332 | – | 0.986 | 0.73 | 0.553 | 0.504 | 1.03 | 1.42 | 1.29 | 0.972 | 0.875 | 0.331 | 0.292 | 0.292 | 0.353 | 0.254
SW 1573 | 1.15 | 0.89 | 0.687 | 0.356 | 0.217 | 0.7 | 0.912 | 0.61 | 0.274 | 0.298 | 0.959 | 1.05 | 0.945 | 0.943 | 0.762 | 1.27 | – | 0.775 | 0.601 | 0.167
SK-LU-1 | 0.262 | 0.385 | 0.23 | 0.335 | 0.282 | 0.62 | 0.637 | 0.485 | 0.5 | 0.284 | 0.921 | 0.8 | 0.753 | 0.759 | 0.406 | 0.835 | 0.818 | 0.839 | 0.787 | 0.368
NCI-H23 | 0.558 | 0.45 | 0.305 | 0.21 | 0.224 | 0.604 | 0.391 | 0.275 | 0.218 | 0.238 | 1 | 0.919 | 0.852 | 0.991 | 0.478 | 0.664 | 0.521 | 0.559 | 0.553 | 0.534
